{
  "source": "patent US4692438A",
  "about": "“Pyridazo-diazepines, diazocines, and -triazepines having anti-hypertensive activity” (Hoffmann-La Roche Inc., priority 1984, dated 1987)",
  "data": [
    {"biological_target": "T1, angiotensin converting enzyme (Oryctolagus cuniculus, UniProt P12822)", "T1 sequence (P12822 34-1310)": "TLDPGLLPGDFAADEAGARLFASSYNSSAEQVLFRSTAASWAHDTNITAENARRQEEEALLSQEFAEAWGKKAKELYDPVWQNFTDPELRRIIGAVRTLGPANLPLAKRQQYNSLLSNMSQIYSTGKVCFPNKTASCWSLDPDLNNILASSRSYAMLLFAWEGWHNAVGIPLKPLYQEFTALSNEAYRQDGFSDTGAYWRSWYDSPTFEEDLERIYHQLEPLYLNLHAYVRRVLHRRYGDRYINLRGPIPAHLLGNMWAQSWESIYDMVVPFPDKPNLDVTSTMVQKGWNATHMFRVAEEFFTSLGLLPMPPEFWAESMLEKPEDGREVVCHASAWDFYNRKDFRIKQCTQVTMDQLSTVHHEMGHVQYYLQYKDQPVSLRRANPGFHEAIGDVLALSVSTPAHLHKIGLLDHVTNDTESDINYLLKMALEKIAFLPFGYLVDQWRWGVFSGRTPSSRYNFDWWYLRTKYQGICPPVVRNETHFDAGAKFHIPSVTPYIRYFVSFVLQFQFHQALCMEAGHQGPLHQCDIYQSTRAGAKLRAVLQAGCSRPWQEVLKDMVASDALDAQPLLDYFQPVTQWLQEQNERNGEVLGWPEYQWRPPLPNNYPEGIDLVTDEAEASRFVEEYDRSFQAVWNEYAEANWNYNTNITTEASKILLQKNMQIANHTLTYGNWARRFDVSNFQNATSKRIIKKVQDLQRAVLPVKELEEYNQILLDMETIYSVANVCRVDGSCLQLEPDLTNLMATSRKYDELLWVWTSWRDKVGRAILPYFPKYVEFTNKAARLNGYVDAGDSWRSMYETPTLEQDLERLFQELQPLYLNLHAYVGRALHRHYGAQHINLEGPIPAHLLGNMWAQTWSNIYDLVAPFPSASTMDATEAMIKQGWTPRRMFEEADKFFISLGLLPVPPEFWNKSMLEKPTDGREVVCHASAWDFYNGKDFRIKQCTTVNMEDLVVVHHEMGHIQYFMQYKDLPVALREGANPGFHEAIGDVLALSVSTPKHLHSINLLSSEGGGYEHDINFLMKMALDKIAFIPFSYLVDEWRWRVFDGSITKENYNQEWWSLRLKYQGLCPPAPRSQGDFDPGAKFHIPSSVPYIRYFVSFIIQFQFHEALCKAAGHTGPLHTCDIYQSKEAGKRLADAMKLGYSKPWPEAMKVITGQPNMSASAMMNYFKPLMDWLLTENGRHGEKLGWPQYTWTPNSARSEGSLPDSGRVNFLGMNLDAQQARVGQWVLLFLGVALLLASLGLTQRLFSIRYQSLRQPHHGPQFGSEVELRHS", "assay": "in vitro inhibition of angiotensin converting enzyme (cleavage of hippuryl-histidyl-leucine)", "format": "biochemical", "conditions": "substrate hippuryl-histidyl-leucine 2 mM; potassium phosphate buffer pH 8.3, 100 mM; NaCl 300 mM; 24 minutes at 37° C.", "description": "The activity of the compounds of formula I and the aforementioned salts in inhibiting angiotensin converting enzyme in vitro can be determined by the following test.\nThe method used is based on the method of Cushman and Cheung (Biochem. Pharmacol., 20. 1637-1648) incorporating the modifications introduced by Hayakari et al (Anal. Biochem., 84. 361-369). The substrate, which is hippuryl-histidyl-leucine, 2 mM, is incubated with angiotensin converting enzyme in the presence or absence of various concentrations of test substance in potassium phosphate buffer (pH 8.3; 100 mM) containing sodium chloride (300 mM) for 24 minutes at 37° C. (total value 500 μl). If the test substance is an ester, it is appropriate to cleave it by means of hog liver esterase before carrying out the test. The reaction is terminated by the addition of 3 ml of potassium phosphate buffer (pH 8.3; 200 mM) at 0° C. 2,4,6-Trichloro-s-triazine (3%) in 1.5 ml of dioxane and the mixture is agitated until the yellow chromophore has developed fully. The samples are then centrifuged to remove any precipitate which has formed. The yellow chromophore formed by the reaction of the 2,4,6-trichloro-s-triazine with free hippuric acid is measured spectrophoto metrically at 382 nm. The IC50 values are defined as the concentration of test substance which reduces by 50% the cleavage of hippuryl-histidyl-leucine by antiotensin converting enzyme under the aforementioned conditions.\nThe results obtained in the foregoing test using representative compounds of formula I as the test substance are compiled in the following Table: […]", "units": {"IC50": "nM"}, "values": [
      {"smiles": "O=C(O)[C@@H]1CCCN2C(=O)CCCC(CS)C(=O)N12", "note": "(stereo partly drawn) [Compound C, decahydro-10(R,S)-mercaptomethyl-6,11-dioxo-6H-pyridazo[1,2-a][1,2]diazocine-1(S)-carboxylic acid]", "IC50": 19},
      {"smiles": "O=C(O)[C@@H]1CCCN2C(=O)CN(Cc3ccccc3)C(CS)C(=O)N12", "note": "(single isomer, unassigned) [Compound D]", "IC50": 51},
      {"smiles": "O=C(O)[C@@H]1CCCN2C(=O)CC[C@H](CS)C(=O)N12", "note": "[Compound A, octahydro-9(S)-mercaptomethyl-6,10-dioxo-6H-pyridazo[1,2-a][1,2]diazepine-1(S)-carboxylic acid]", "IC50": 4},
      {"smiles": "O=C(O)[C@@H]1CCCN2CCC[C@H](CS)C(=O)N12", "note": "[Compound B, octahydro-9(S)-mercaptomethyl-10-oxo-pyridazo[1,2-a][1,2]diazepine-1(S)-carboxylic acid]", "IC50": 2.6}
    ]}
  ]
}
